According to patent EP1061896B1, “COSMETIC METHOD OF TREATING SKIN” (UNILEVER PLC, priority 1998, dated 1999):
Like-named read-outs stand apart in the source and are kept apart here.

Tests used:
PGE2 [1] = assay: Fibroblast PGE2 assay, PMA-induced; type: cell-based; conditions: human skin fibroblasts, N=4
Method: Intracellular adhesion molecules (ICAM) and PEG2 production by human skin fibroblasts can be induced by the inflammatory stimulus PMA (phorbal myristate acetate). PMA represents an external stressor which induces oxidative stress and inflammatory responses in cells. This model is used to model inflammation in vivo.
Primary human foreskin fibroblasts at passage 2 (P2) were seeded into 96-well plates at 10000 cells/well and maintained for 24 hours in an atmosphere of 5% carbon dioxide in Dulbeccos Modified Eagles Medium (DMEM) supplemented with 10% foetal calf serum. […] Phorbal myristate acetate (PMA) (Sigma) was added to the media and the cells incubated for a further 24 hours. […] The fibroblasts/media were then analysed as described below immediately or snap frozen in liquid nitrogen and stored at -70°C for future analysis. The cells were then counted and data from the dot-blot analysis subsequently standardised to cell number.
Prostaglandin E2 (PGE2) assay: Volumes of 50 µl culture medium were taken for PGE2 assay after gently shaking the culture plate. PGE2 levels in the medium were determined with a Biotrak PGE2 immunoassay kit (Amersham, UK). The assay is based on the competition between unlabelled PGE2 in the sample and a fixed quantity of horseradish peroxidase labelled PGE2 for a limited amount of fixed PGE2 specific antibody. Concentrations of unlabelled sample PGE2 are determined according to a standard curve which was obtained at the same time.

procollagen-I = assay: Immunohistochemical analysis of forearm skin biopsies after topical treatment: procollagen-I expression; type: in vivo, human; conditions: compared with placebo forearm
Excerpt: (§1) Two groups of women were recruited with identical or nearly identical degrees of mild to moderate photodamage on each outer forearm. They were supplied with 0.05% retinoic acid in a moisturising base (Retinova®) and also with a colour matched moisturising cream with similar sensory characteristics (Dermacare® lotion), but no active ingredients, as a placebo control. Each participant of the two groups applied the Retinova® to one outer forearm and placebo (Dermacare®) to the other outer forearm. Group 1 applied the products daily to their outer forearms for 14 weeks and the Group 2 applied the products to their outer forearms for 28 weeks. At the end of the studies two full thickness 4mm punch biopsies were taken from the treated areas of each forearm. Immunohistochemical analysis of the biopsy tissue taken from the participants was performed to identify the effect of retinoic acid treatment on the expression of the skin extracellular matrix components, decorin and procollagen-I, as compared with the placebo treated forearms. The following procedure was followed:
(§2) Antibody dilution buffer for wax sections was composed of Tris Buffered Saline (TBS), 3% bovine serum albumin (BSA), 0.05% Triton X-100 and 0.05% sodium azide. […]

decorin = assay: Immunohistochemical analysis of forearm skin biopsies after topical treatment: decorin expression; type: in vivo, human; conditions: compared with placebo forearm
Excerpt: as §1, §2

Keratinocytes [2] = assay: Keratinocyte SDS viability assay (Neutral Red method); type: cell-based; conditions: 24 hours, n=8
Method: (§3) After incubating for 24 hours the medium was removed and the viability determined by the Neutral Red method.

Keratinocytes [3] = assay: Keratinocyte viability by neutral red uptake after the PGE2 assay; type: cell-based; conditions: 24 hours, at the concentrations tested (0.1 and 1 µM)
Method: as §3
The cells were then tested for viability by the neutral red up-take method described in example 2 above.

[4] = Cell viability assay by neutral red dye absorption in the pigmentation assay; type: cell-based; conditions: mouse, b16-f1 cells, n=4, read-out: Neutral Red Cell Viability % Control
Method: (§4) • * Cell maintenance B16-F1 mouse melanoma cells (American Type Culture Collection, Maryland, USA) were maintained in 75 cm^2 culture flasks in RPMI 1640 medium (ICN-Flow, cat. no. 12-60-54) supplemented with L-glutamine (4 mM) and 10% foetal bovine serum (FBS) at 37°C in a water saturated, 5% CO2 in air atmosphere. Cells were passaged twice weekly. • * Pigmentation Assay Subconfluent B16 cells were seeded in 96 well microtiter plates at a density of 5000 cells/well and cultured overnight in DMEM (Life Technologies, NY) containing 10% foetal bovine serum and 1% penicillin/streptomycin without phenol red at 37°C under 5% CO2. After 24 hours, the media was replaced with fresh media containing the test materials or vehicle controls. Cells were incubated for 72 hours at which time melanin was visible in the control wells. Next, the melanin containing media from each well was transferred to a clean 96 well plate and quantified by reading the absorbance at 530 nm using a microplate spectrophotometer (Dynatech MR5000) and correcting for the baseline absorption of fresh medium. As the corrected absorption is proportional to the melanin concentration the percentage pigmentation for a skin lightening test substance can be calculated as: % pigmentation = (OD530 test/OD530 ref) x 100% [formula] where OD530 test and OD530 ref indicate the average corrected absorption of the medium from the wells with the test substance and that of the medium from the wells without the test substance. The percentage inhibition caused by the test substance is then 100 - % pigmentation. • * Cell viability assay Melanin production may be reduced by inhibition of melanogenesis but it may also be affected by cytotoxicity or cell proliferation. To test whether this occurred cell viability was tested by neutral red dye absorption. Neutral red is a water soluble dye that passes through the intact plasma membrane and becomes concentrated in the lysosomes in intact cells. Total neutral red dye uptake is proportional to the number of viable cells in culture. Immediately following the removal of medium for melanin analysis from the microtitre wells, 200 µl fresh prewarmed neutral red dye (ex. Sigma, UK, Cat. Nr 2889) at 25 µg/ml medium was applied to the cells and incubated for 3 hours as for cell maintenance. Dye which had not been taken up by the cells was removed by inversion of the plate and tapping on abscrbent paper. The cells were washed with 200 µl PBS, which was then removed again. 100 µl solvent (50% H2O, 49% ethanol, 1% acetic acid) was added. After 20 minutes at ambient temperature each plate was shaken for 5 seconds on a microtitre plate shaker. The absorption was measured as described above.

[5] = test system: B16-F1 mouse melanoma cells; assay: Pigmentation assay (melanin in media, absorbance at 530 nm); type: cell-based; conditions: 72 hours, n=4, read-out: Melanin in Media % Control
Method: as §4

PGE2 [6] = assay: Keratinocyte PGE2 assay (basal release, enzyme-linked immunoassay); type: cell-based; conditions: 24 hours, unstimulated keratinocytes, n=4, Control 197.9
Method: This was then replaced with KGM without hydrocortisone for 24-48 hours. No petroselinic acid was added to the control cells. […] At the end of the incubation the medium was harvested and assayed for the basal release of the pro-inflammatory PGE2 by enzyme-linked immuno assay using a commercial PGE2 kit (Amersham, Buckinghamshire, England).
The anti-inflammatory potential of the test compounds were assessed by the ability of the compounds to reduce the basal levels of secreted PGE2 as compared to the control. Statistical significance was determined using the Student's t-test.

[7] = Group 1 after 14 weeks, 16 participants, 0.05% retinoic acid (Retinova®) daily on outer forearm
[8] = Group 2 after 28 weeks, 15 participants, 0.05% retinoic acid (Retinova®) on outer forearm

CCCCCCCCCCCCCC(=O)O[C@@H]1[C@@H](C)[C@@]2(O)[C@@H](C=C(CO)C[C@]3(O)C(=O)C(C)=C[C@@H]23)[C@@H]2C(C)(C)[C@]12OC(C)=O [PMA, phorbal myristate acetate, reference compound]
PGE2 (PGE2 [1]; PMA (10nM) alone, Control 32±6): 2371 ± 241 pg/mL

CC1=C(/C=C/C(C)=C/C=C/C(C)=C/C(=O)O)C(C)(C)CCC1 [Retinoic Acid, retinoic acid]
No. of Participants showing marked increase in expression of procollagen-I (procollagen-I; [7]): 9
No. of Participants showing marked increase in expression of procollagen-I (procollagen-I; [8]): 10
No. of Participants showing marked increase in expression of decorin (decorin; [7]): 10
No. of Participants showing marked increase in expression of decorin (decorin; [8]): 15

CCCCCCCCCCCCOS(=O)(=O)[O-].[Na+] [SDS, sodium dodecyl sulphate, reference compound]
Keratinocyte viability % of control Mean (Keratinocytes [2]; SDS 2 µg/ml alone (PA 0 µM)): 55.8 % of control

CCCCCCCCCCC/C=C\CCCCC(=O)O [Petroselinic Acid, Petroselinic acid]
Cell viability (Keratinocytes [3]): not found to be adversely effected
PGE2 (PGE2 [1]; PMA (10nM) + PA 0.1uM): 500 ± 12 pg/mL
PGE2 (PGE2 [1]; PMA (10nM) + PA 1uM): 486 ± 93 pg/mL
PGE2 (PGE2 [1]; PMA (10nM) + PA 10uM): 233 ± 139 pg/mL
PGE2 (PGE2 [1]; PMA (10nM) + PA 100uM): 117 ± 39 pg/mL
Keratinocyte viability % of control Mean (Keratinocytes [2]; SDS 2 µg/ml + PA 0.1 µM): 94.5 % of control
Keratinocyte viability % of control Mean (Keratinocytes [2]; SDS 2 µg/ml + PA 1.0 µM): 84.1 % of control
Keratinocyte viability % of control Mean (Keratinocytes [2]; SDS 2 µg/ml + PA 10 µM): 85.8 % of control
viability at 72 h ([4]; 0.01%): 105%
viability at 72 h ([4]; 0.013%): 105%
viability at 72 h ([4]; 0.02%): 103%
viability at 72 h ([4]; 0.04%): 69.9%
viability at 72 h ([4]; 0.1%): 1%
activity at 0.01 % ([5]; 0.01%): 79.5%
activity at 0.013 % ([5]; 0.013%): 40.4%
activity at 0.02 % ([5]; 0.02%): 55.3%
activity at 0.04 % ([5]; 0.04%): 3.9%
activity at 0.1 % ([5]; 0.1%): 19.3%
Keratinocyte PGE2 Levels Mean (PGE2 [6]; PA 0.1 µM): 150.1 pg/well
Keratinocyte PGE2 Levels Mean (PGE2 [6]; PA 1 µM): 117.8 pg/well
